ChEMBL document CHEMBL1152265, “The design, synthesis and biological evaluation of 7-alkoxy-4-heteroarylamino-3-cyanoquinolines as dual inhibitors of c-Src and iNOS” (Bioorg Med Chem Lett, 2008)

Legend:
[1] = biological target: T1, Nitric oxide synthase, inducible (Mus musculus, UniProt P29477); assay: Inhibition of iNOS in mouse ANA1 cells; assay type: cell-based
T1 sequence (P29477 whole entry): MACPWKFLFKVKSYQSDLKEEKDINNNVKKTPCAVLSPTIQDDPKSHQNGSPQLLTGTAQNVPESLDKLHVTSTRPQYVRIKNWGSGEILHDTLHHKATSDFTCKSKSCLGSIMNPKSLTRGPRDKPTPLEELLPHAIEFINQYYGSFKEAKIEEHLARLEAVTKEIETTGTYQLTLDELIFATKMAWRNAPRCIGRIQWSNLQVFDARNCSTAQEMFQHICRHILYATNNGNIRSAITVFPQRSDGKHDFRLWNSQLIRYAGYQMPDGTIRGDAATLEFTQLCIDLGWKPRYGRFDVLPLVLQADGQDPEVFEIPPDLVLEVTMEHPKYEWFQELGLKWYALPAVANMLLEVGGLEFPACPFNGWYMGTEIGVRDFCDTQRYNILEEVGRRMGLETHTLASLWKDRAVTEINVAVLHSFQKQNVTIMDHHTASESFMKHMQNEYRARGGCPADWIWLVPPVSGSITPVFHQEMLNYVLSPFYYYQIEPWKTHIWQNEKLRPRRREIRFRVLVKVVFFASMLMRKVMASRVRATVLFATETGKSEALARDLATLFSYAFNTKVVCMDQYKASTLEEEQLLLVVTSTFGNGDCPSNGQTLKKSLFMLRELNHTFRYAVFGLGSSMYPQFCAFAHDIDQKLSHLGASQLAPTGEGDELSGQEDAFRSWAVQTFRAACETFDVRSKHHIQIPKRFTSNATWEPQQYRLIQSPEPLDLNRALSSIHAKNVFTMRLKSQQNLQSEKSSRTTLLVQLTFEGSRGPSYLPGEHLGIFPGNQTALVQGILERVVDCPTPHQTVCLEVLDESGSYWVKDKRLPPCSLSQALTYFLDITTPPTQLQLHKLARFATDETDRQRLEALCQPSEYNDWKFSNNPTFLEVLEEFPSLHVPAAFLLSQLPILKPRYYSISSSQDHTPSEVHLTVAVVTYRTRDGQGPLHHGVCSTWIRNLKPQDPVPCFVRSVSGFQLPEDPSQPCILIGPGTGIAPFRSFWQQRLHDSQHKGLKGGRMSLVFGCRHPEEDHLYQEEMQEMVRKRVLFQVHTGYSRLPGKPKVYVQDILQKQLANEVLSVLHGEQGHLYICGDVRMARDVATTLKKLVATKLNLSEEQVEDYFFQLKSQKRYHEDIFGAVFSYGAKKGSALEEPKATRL

[2] = biological target: Proto-oncogene tyrosine-protein kinase Src (Homo sapiens, UniProt P12931); assay: Inhibition of cSrc
[3] = system: A549; assay: Antiproliferative activity against human A549 cells assessed as survival at 10 uM by sulforhodamine B assay; assay type: functional; conditions: read-out: Activity
[4] = system: HT-29; assay: Antiproliferative activity against human HT-29 cells assessed as survival at 10 uM by sulforhodamine B assay; assay type: functional; conditions: read-out: Activity
[5] = system: HepG2; assay: Antiproliferative activity against human HepG2 cells assessed as survival at 10 uM by sulforhodamine B assay; assay type: functional; conditions: read-out: Activity
[6] = system: AGS; assay: Antiproliferative activity against human AGS cells assessed as survival at 10 uM by sulforhodamine B assay; assay type: functional; conditions: read-out: Activity
[7] = system: PC-3; assay: Antiproliferative activity against human PC3 cells assessed as survival at 10 uM by sulforhodamine B assay; assay type: functional; conditions: read-out: Activity

Proto-oncogene tyrosine-protein kinase Src, sequence (P12931 2-536 limits assumed): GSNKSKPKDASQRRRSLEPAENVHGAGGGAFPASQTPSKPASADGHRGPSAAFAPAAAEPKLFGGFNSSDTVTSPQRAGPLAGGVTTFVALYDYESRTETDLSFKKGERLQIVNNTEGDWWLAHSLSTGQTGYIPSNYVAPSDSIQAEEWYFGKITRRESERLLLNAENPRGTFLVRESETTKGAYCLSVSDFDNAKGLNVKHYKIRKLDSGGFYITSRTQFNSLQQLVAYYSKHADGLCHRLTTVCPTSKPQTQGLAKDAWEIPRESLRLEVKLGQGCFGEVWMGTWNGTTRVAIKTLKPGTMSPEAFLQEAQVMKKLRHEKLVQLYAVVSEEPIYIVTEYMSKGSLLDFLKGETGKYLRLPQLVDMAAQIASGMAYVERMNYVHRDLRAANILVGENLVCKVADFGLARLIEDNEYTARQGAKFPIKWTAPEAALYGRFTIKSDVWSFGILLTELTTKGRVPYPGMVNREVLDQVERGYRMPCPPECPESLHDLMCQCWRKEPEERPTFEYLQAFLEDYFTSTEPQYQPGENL

IC50 [1] [µM] | IC50 [2] [µM] | SMILES | viability at 10 µM [3] [%] | viability at 10 µM [4] [%] | viability at 10 µM [5] [%] | viability at 10 µM [6] [%] | viability at 10 µM [7] [%]
46.8 | 0.042 | CCN(CC)CCCOc1cc2ncc(C#N)c(Nc3ccc4nc(N)sc4c3)c2cc1C |  |  |  |  | 
13.2 | 0.143 | Cc1cc2c(Nc3ccc4nc(N)[nH]c4c3)c(C#N)cnc2cc1OCCCN(C)C |  |  |  |  | 
105 | 0.0207 | COc1cc2c(Nc3ccc4nc(N)sc4c3)c(C#N)cnc2cc1OCCCN1CCNCC1 |  |  |  |  | 
24.8 | 0.159 | Cc1cc2c(Nc3ccc4nc(N)[nH]c4c3)c(C#N)cnc2cc1OCCCN1CCCC1 |  |  |  |  | 
10.5 | 0.267 | Cc1cc2c(Nc3ccc4nc(N)sc4c3)c(C#N)cnc2cc1OCCCN1CC(C)CC(C)C1 (configuration not stated) | 53.6 | 60.6 | 42.2 | 65.5 | 63
12.7 | 0.0534 | Cc1cc2c(Nc3ccc4nc(N)sc4c3)c(C#N)cnc2cc1OCCCN1CCC(C)CC1 |  |  |  |  | 
37.1 | 0.0506 | Cc1cc2c(Nc3ccc4nc(N)sc4c3)c(C#N)cnc2cc1OCCCN1CCN(C)CC1 | 64.1 | 31.6 | 40.5 | 68.1 | 59.5
 |  | COc1cc(Nc2c(C#N)cnc3cc(OCCCN4CCN(C)CC4)c(OC)cc23)c(Cl)cc1Cl [BOSUTINIB] | 9.32 | 2.84 | 9.2 | 3.8 | 7.81
26.7 | 0.0348 | Cc1cc2c(Nc3ccc4nc(N)sc4c3)c(C#N)cnc2cc1OCCN1CCCCC1 | 55.4 | 42.7 | 55.4 | 61 | 77.7
31.8 | 0.0811 | Cc1cc2c(Nc3ccc4nc(N)sc4c3)c(C#N)cnc2cc1OCCCN1CCOCC1 |  |  |  |  | 
89.1 | 0.0366 | Cc1cc2c(Nc3ccc4nc(N)sc4c3)c(C#N)cnc2cc1OCCCN1CC(C)NC(C)C1 (configuration not stated) |  |  |  |  | 
17.3 | 0.129 | Cc1cc2c(Nc3ccc4nc(N)sc4c3)c(C#N)cnc2cc1OCCCN1CCNCC1 |  |  |  |  | 
